Read-outs that look alike come from different tables or passages of the source.
What was measured:
P-4E-BP1 (T37/46) = experiment: Cell based AlphaLISA assay, inhibition of P-4E-BP1 (T37/46) (mTORC1 substrate phosphorylation) in MDA-MB-468 cells; conditions: Homo sapiens, AlphaLISA, two to four hours at 37° C., read-out: pIC50 for Inhibition of mTORC1 and mTORC2 Substrate Phosphorylation, P-4E-BP1-(T37/46) (converted)
How it was run: (§1)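 IC50s come from control-normalized curve fits of duplicate Alpha signals. Cell lysates were probed with SureFire Ultra kits for mTORC1 substrates 4E-BP1 T37/46 and P70S6K T389 and mTORC2 substrate Akt S473 in MDA-MB-468 cells exposed to inhibitor.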

P-P70S6K (T389) = experiment: Cell based AlphaLISA assay, inhibition of P-P70S6K (T389) (mTORC1 substrate phosphorylation) in MDA-MB-468 cells; conditions: Homo sapiens, 4 h, AlphaLISA, two to four hours at 37° C., read-out: pIC50 for Inhibition of mTORC1 and mTORC2 Substrate Phosphorylation, P-P70S6K-(T389) (converted)
How it was run: as §1

P-Akt (S473) = experiment: Cell based AlphaLISA assay, inhibition of P-Akt (S473) (mTORC2 substrate phosphorylation) in MDA-MB-468 cells; conditions: Homo sapiens, AlphaLISA, two to four hours at 37° C., read-out: pIC50 for Inhibition of mTORC1 and mTORC2 Substrate Phosphorylation, p-AKT 1/2/3 -(S473) (converted)
How it was run: as §1

SMILES	IC50 (P-4E-BP1 (T37/46); MDA-MB-468, 4 h) [nM]	IC50 (P-P70S6K (T389)) [nM]	IC50 (P-Akt (S473); MDA-MB-468, 4 h) [nM]	IC50 (P-4E-BP1 (T37/46); 4 h) [nM]	IC50 (P-Akt (S473); 4 h) [nM]
COC(=O)N[C@H]1C[C@@H]2CC[C@@H](C)[C@@](O)(O2)C(=O)C(=O)N2CCCC[C@H]2C(=O)O[C@H]([C@H](C)C[C@@H]2CC[C@@H](OCCCCc3cn(CCOCCOCCOCCOCCOCCOCCC(=O)N4CCN(c5ccc(-n6c(=O)n(C)c7cnc8ccc(-c9ccc(OC)nc9)cc8c76)cc5C(F)(F)F)CC4)nn3)[C@H](OC)C2)CC(=O)[C@H](C)/C=C(\C)[C@@H](O)[C@@H](OC)C(=O)[C@H](C)C[C@H](C)/C=C/C=C/C=C/1C [Example 73]	< 3.16	< 1	< 3.16		
CO[C@H]1C[C@@H]2CC[C@@H](C)[C@@](O)(O2)C(=O)C(=O)N2CCCC[C@H]2C(=O)O[C@H]([C@H](C)C[C@@H]2CC[C@@H](OCc3cccc(-c4cnc(N5CCN(Cc6cn(CCOCCOCCOCCOCCOCCC(=O)NCCCCn7nc(-c8ccc9oc(N)nc9c8)c8c(N)ncnc87)nn6)CC5)nc4)c3)[C@H](OC)C2)CC(=O)[C@H](C)/C=C(\C)[C@@H](O)[C@@H](OC)C(=O)[C@H](C)C[C@H](C)/C=C/C=C/C=C/1C [Example 20]	< 3.16	< 1	3.16 to 31.6		
CCO[C@@H]1C[C@@H]([C@H](C)C[C@@H]2CC[C@H](n3cc(COC(=O)NCCOCCOCCOCCC(=O)NCCOCCOCCOCCC(=O)NCCCCn4nc(-c5cc6cc(O)ccc6[nH]5)c5c(N)ncnc54)nn3)[C@H](OC)C2)OC(=O)[C@@H]2CCCCN2C(=O)C(=O)[C@]2(O)O[C@@H](CC[C@H]2C)C[C@H](OC)/C(C)=C/C=C/C=C/[C@@H](C)C[C@@H](C)C(=O)[C@H](OC)[C@H](O)/C(C)=C/[C@H]1C [Example 150]	31.6 to 1000	10 to 1000	> 1000		
CO[C@H]1C[C@@H]2CC[C@@H](C)[C@@](O)(O2)C(=O)C(=O)N2CCCC[C@H]2C(=O)O[C@H]([C@H](C)C[C@@H]2CC[C@@H](OCCCCc3cn(CCOCCOCCOCCOCCNC(=O)CCCC(=O)NCCCCn4nc(-c5ccc6oc(N)nc6c5)c5c(N)ncnc54)nn3)[C@H](OC)C2)CC(=O)[C@H](C)/C=C(\C)[C@@H](O)[C@@H](OC)C(=O)[C@H](C)C[C@H](C)/C=C/C=C/C=C/1C [Example 101]	< 3.16	< 1	3.16 to 31.6		
CO[C@H]1C[C@@H]2CC[C@@H](C)[C@@](O)(O2)C(=O)C(=O)N2CCCC[C@H]2C(=O)O[C@H]([C@H](C)C[C@@H]2CC[C@@H](OCCCCc3cn(CCOCCOCCOCCOCCOCCOCCC(=O)N4CCC(Cn5nc(-c6ccc7oc(N)nc7c6)c6c(N)ncnc65)C4)nn3)[C@H](OC)C2)CC(=O)[C@H](C)/C=C(\C)[C@@H](O)[C@@H](OC)C(=O)[C@H](C)C[C@H](C)/C=C/C=C/C=C/1C (stereo partly drawn) [Example 8]	< 3.16	< 1	3.16 to 31.6		
CO[C@H]1C[C@@H]2CC[C@@H](C)[C@@](O)(O2)C(=O)C(=O)N2CCCC[C@H]2C(=O)O[C@H]([C@H](C)C[C@@H]2CC[C@H](n3cc(CCCC(=O)NCCOCCOCCOCCC(=O)NCCOCCOCCC(=O)NCCCCn4nc(-c5ccc6oc(N)nc6c5)c5c(N)ncnc54)nn3)[C@H](OC)C2)C/C(=N/OC(C)(C)C)[C@H](C)/C=C(\C)[C@@H](O)[C@@H](OC)C(=O)[C@H](C)C[C@H](C)/C=C/C=C/C=C/1C [Example 176]	> 1000	10 to 1000	> 1000		
CO[C@H]1C[C@@H]2CC[C@@H](C)[C@@](O)(O2)C(=O)C(=O)N2CCCC[C@H]2C(=O)O[C@H]([C@H](C)C[C@@H]2CC[C@H](n3cc(COC(=O)NCCOCCOCCOCCC(=O)NCCOCCOCCOCCC(=O)NCCCCn4nc(-c5ccc6oc(N)nc6c5)c5c(N)ncnc54)nn3)[C@H](OC)C2)CC(=O)[C@H](C)/C=C(\C)[C@@H](O)[C@@H](OC)C(=O)[C@H](C)C[C@H](C)/C=C/C=C/C=C/1C [Example 122]	3.16 to 31.6	1 to 10	3.16 to 31.6		
COc1cccc2cc(-c3nc([C@H]4CC[C@H](C(=O)NCCOCCOCCOCCNC(=O)CCOCCOCCOCCOCCn5cc(CCCCO[C@@H]6CC[C@@H](C[C@@H](C)[C@@H]7CC(=O)[C@H](C)/C=C(\C)[C@@H](O)[C@@H](OC)C(=O)[C@H](C)C[C@H](C)/C=C/C=C/C=C(\C)[C@@H](OC)C[C@@H]8CC[C@@H](C)[C@@](O)(O8)C(=O)C(=O)N8CCCC[C@H]8C(=O)O7)C[C@H]6OC)nn5)CC4)n4ncnc(N)c34)[nH]c12 [Example 189]	< 3.16	< 1	3.16 to 31.6		
CO[C@H]1C[C@@H]2CC[C@@H](C)[C@@](O)(O2)C(=O)C(=O)N2CCCC[C@H]2C(=O)O[C@H]([C@H](C)C[C@@H]2CC[C@H](OCCCCc3cn(CCOCCOCCOCCOCCOCCOCCC(=O)NCCCCn4nc(-c5cccc(C(=O)NC6=NCCS6)c5)c5c(N)ncnc54)nn3)[C@H](OC)C2)CC(=O)[C@H](C)/C=C(\C)[C@@H](O)[C@@H](OC)C(=O)[C@H](C)C[C@H](C)/C=C/C=C/C=C/1C (stereo in doubt) [Example 41]	3.16 to 31.6	< 1	> 1000		
CO[C@H]1C[C@@H]2CC[C@@H](C)[C@@](O)(O2)C(=O)C(=O)N2CCCC[C@H]2C(=O)O[C@H]([C@H](C)C[C@@H]2CC[C@@H](OCCCCc3cn(CCOCCOCCOCCOCCOCCOCCC(=O)N4CCC(Cn5nc(-c6ccc7oc(N)nc7c6)c6c(N)ncnc65)CC4)nn3)[C@H](OC)C2)CC(=O)[C@H](C)/C=C(\C)[C@@H](O)[C@@H](OC)C(=O)[C@H](C)C[C@H](C)/C=C/C=C/C=C/1C [Example 91]	< 3.16	< 1	< 3.16		
COc1ccc(-c2ccc3ncc4c(c3c2)n(-c2ccc(N3CCN(C(=O)CCOCCOCCOCCOCCOCCOCCn5cc(CCCCO[C@@H]6CC[C@@H](C[C@@H](C)[C@@H]7CC(=O)[C@H](C)/C=C(\C)[C@@H](O)[C@@H](OC)C(=O)[C@H](C)C[C@H](C)/C=C/C=C/C=C(\C)[C@@H](OC)C[C@@H]8CC[C@@H](C)[C@@](O)(O8)C(=O)C(=O)N8CCCC[C@H]8C(=O)O7)C[C@H]6OC)nn5)CC3)c(C(F)(F)F)c2)c(=O)n4C)cn1 [Example 44]		< 1		< 3.16	< 3.16
CO/N=C1/C[C@@H]([C@H](C)C[C@@H]2CC[C@H](n3cc(CCCC(=O)NCCOCCOCCOCCC(=O)NCCOCCOCCC(=O)NCCCCn4nc(-c5cc6cc(O)ccc6[nH]5)c5c(N)ncnc54)nn3)[C@H](OC)C2)OC(=O)[C@@H]2CCCCN2C(=O)C(=O)[C@]2(O)O[C@@H](CC[C@H]2C)C[C@H](OC)/C(C)=C/C=C/C=C/[C@@H](C)C[C@@H](C)C(=O)[C@H](OC)[C@H](O)/C(C)=C/[C@H]1C [Example 170]	> 1000	10 to 1000	> 1000		
CO/N=C1/C[C@@H]([C@H](C)C[C@@H]2CC[C@H](n3cc(CCCC(=O)NCCOCCOCCOCCC(=O)NCCOCCOCCC(=O)NCCCCn4nc(-c5ccc6oc(N)nc6c5)c5c(N)ncnc54)nn3)[C@H](OC)C2)OC(=O)[C@@H]2CCCCN2C(=O)C(=O)[C@]2(O)O[C@@H](CC[C@H]2C)C[C@H](OC)/C(C)=C/C=C/C=C/[C@@H](C)C[C@@H](C)C(=O)[C@H](OC)[C@H](O)/C(C)=C/[C@H]1C [Example 169]	> 1000	10 to 1000	> 1000		
CO[C@H]1C[C@@H]2CC[C@@H](C)[C@@](O)(O2)C(=O)C(=O)N2CCCC[C@H]2C(=O)O[C@H]([C@H](C)C[C@@H]2CC[C@H](n3cc(COC(=O)NCCOCCOCCOCCC(=O)NCCOCCOCCOCCOCCC(=O)NCCCCn4nc(-c5ccc6oc(N)nc6c5)c5c(N)ncnc54)nn3)[C@H](OC)C2)CC(=O)[C@H](C)/C=C(\C)[C@@H](O)[C@@H](OC)C(=O)[C@H](C)C[C@H](C)/C=C/C=C/C=C/1C [Example 124]	3.16 to 31.6	1 to 10	3.16 to 31.6		
CO[C@H]1C[C@@H]2CC[C@@H](C)[C@@](O)(O2)C(=O)C(=O)N2CCCC[C@H]2C(=O)O[C@H]([C@H](C)C[C@@H]2CC[C@H](n3cc(COC(=O)NCCOCCOCCOCCC(=O)NCCOCCOCCC(=O)NCCCCn4nc(-c5cc6cc(O)ccc6[nH]5)c5c(N)ncnc54)nn3)[C@H](OC)C2)CC(=O)[C@H](C)/C=C(\C)[C@@H](O)[C@@H](OC)C(=O)[C@H](C)C[C@H](C)/C=C/C=C/C=C/1C [Example 121]	31.6 to 1000	1 to 10	> 1000		
CO[C@H]1C[C@@H]2CC[C@@H](C)[C@@](O)(O2)C(=O)C(=O)N2CCCC[C@H]2C(=O)O[C@H]([C@H](C)C[C@@H]2CC[C@@H](O)[C@H](OC)C2)C[C@@H](OC)[C@H](C)/C=C(\C)[C@@H](O)[C@@H](OC)/C(=N/OCc2cn(CCOCCOCCOCCOCCOCCOCCC(=O)NCCCCn3nc(-c4ccc5oc(N)nc5c4)c4c(N)ncnc43)nn2)[C@H](C)C[C@H](C)/C=C/C=C/C=C/1C [Example 14]	3.16 to 31.6	1 to 10	31.6 to 1000		
